Results: ChEMBL document CHEMBL1135194, “Inhibition of Src kinase activity by 4-anilino-7-thienyl-3-quinolinecarbonitriles” (Bioorg Med Chem Lett, 2002)

molecular target: Proto-oncogene tyrosine-protein kinase Src (Homo sapiens, UniProt P12931); assay: Inhibition of Src kinase in enzymatic assay
Sequence (P12931 2-536 limits assumed): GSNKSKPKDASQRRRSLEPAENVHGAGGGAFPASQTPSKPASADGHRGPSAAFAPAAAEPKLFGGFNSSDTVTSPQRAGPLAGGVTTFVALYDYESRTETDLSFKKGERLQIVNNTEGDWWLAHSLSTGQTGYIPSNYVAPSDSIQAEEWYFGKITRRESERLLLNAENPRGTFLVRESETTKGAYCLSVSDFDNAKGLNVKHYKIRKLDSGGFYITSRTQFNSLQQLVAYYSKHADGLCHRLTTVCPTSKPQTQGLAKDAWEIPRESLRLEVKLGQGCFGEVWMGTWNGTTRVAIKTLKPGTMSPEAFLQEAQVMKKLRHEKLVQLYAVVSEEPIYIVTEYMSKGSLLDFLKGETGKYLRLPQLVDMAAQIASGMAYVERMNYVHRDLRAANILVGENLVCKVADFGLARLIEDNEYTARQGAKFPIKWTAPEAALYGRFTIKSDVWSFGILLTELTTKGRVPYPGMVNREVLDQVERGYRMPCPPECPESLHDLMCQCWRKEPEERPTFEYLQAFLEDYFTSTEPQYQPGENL

IC50 [nM]	SMILES
440	COc1cc(Nc2c(C#N)cnc3cc(-c4ccsc4CN4CCOCC4)ccc23)c(Cl)cc1Cl
4.2	COc1cc(Nc2c(C#N)cnc3cc(-c4cc(CN5CCCCC5)cs4)ccc23)c(Cl)cc1Cl
1.4	COc1cc(Nc2c(C#N)cnc3cc(-c4csc(CN5CCC(O)CC5)c4)ccc23)c(Cl)cc1Cl
5.7	COc1cc(Nc2c(C#N)cnc3cc(-c4cc(CN5CCOCC5)cs4)ccc23)c(Cl)cc1Cl
2.7	COc1cc(Nc2c(C#N)cnc3cc(-c4csc(CN5CCOCC5)c4)ccc23)c(Cl)cc1Cl
2.5	COc1cc(Nc2c(C#N)cnc3cc(-c4ccc(CN5CCOCC5)s4)ccc23)c(Cl)cc1Cl
280	COc1cc(Nc2c(C#N)cnc3ccc(-c4csc(CN5CCOCC5)c4)cc23)c(Cl)cc1Cl
240	COc1cc(Nc2c(C#N)cnc3cc(-c4cscc4CN4CCOCC4)ccc23)c(Cl)cc1Cl
